Measurements as given in patent US11207432B2, “Substituted organofluoroborates as imaging agents” (THE UNIVERSITY OF BRITISH COLUMBIA, priority 2013, dated 2021).

Legend:
[1] = Solvolytic defluoridation of fluoridated organotrifluoroborates by 19F-NMR; format: physicochemical; conditions: 200 mM phosphate buffer pH 7.5, 19F NMR; for k(solvolysis): pseudo-first-order fit; for half-life: solvolytic defluoridation, read-out: half-life, t1/2
Description: The following is are representative examples of testing of solvolytic defluoridation of fluoridated organoborates as shown in FIG. 1A to FIG. 1FF and Table 1. Solutions of the fluoridated organotrifluoroborates were made by dissolving 30 mg of the fluoridated organotrifluoroborate into 1 mL of 20% ethanol/acetonitrile.
As the fluoridated organotrifluoroborate salts were often contaminated with a significant amount of free fluoride, a silica column was used to remove the free fluoride from the organotrifluoroborate solution. After loading the crude reaction onto the silica column, the fractions containing the desired organotrifluoroborate were eluted and combined to form a combined solution. In view of the strong stability of the fluoridated organotrifluoroborate in organic solvent, 20% of the combined solution was stored in an NMR tube and this sample served as the “zero” minute time point. A purified organotrifluoroborate salt was isolated from the remaining portion of the combined solution (remaining 80% of the combined solution) by removing the organic solvent from the combined solution by vacuum. Removal of the organic solvent from the combined solution gave the purified fluoridated alkylbornate salt in the form of a white solid. The dry and purified fluoridated organotrifluoroborate salt was re-dissolved into 3 mL of 200 mM phosphate buffer. Solvolytic defluoridation started immediately upon dissolution of the fluoridated organotrifluoroborate salt into phosphate buffer, and accordingly, the time was recorded at the moment of dissolution. The progress of solvolytic defluoridation of the fluoridated organotrifluoroborate salt was monitored using ^19F NMR spectroscopy. General principles, methods and background relating to the use of ^19F NMR spectroscopy for monitoring defluoridation are known, and may be found in, for example, Ting et al. (2008, J. Org. Chem. 73; 4662-70; Harwig et al. (2008) Tetrahedron Letters 49:3152-56; and Ting et al. (2008) Journal of Fluorine Chemistry 129:349-58. For each time point, solvolytic defluoridation data was collected using a 300 MHz ^19F NMR spectrometer (Bruker). ^19F NMR spectroscopic tracers for the fluoridated organotrifluoroborate salt at different times are shown in FIG. 1A. Use of ^19F-NMR to measure solvolytic defluoridation provides a useful model for measuring solvolytic 18F-defluoridation because if one F is lost, all are lost. Moreover, it is understood that the kinetic isotope effect in terms of B—F bond solvolysis is negligible. […] The degree of solvolytic defluoridation of the fluoridated organotrifluoroborate salt was plotted as a function of time, for example, as shown in FIG. 1B for Compound 6 of Table 1. ^19F NMR spectroscopic tracers for the fluoridated organotrifluoroborate salts of compounds listed in Table 1 at different times are shown in FIGS. 1A, 1C, 1E, 1G, 1I, 1K, 1M, 1O, 1Q, 1S, 1U, 1W, 1Y, 1AA, 1CC, and 1EE, and the degree of solvolytic defluoridation of the compounds as a function of time is shown in FIGS. 1B, 1D, 1F, 1H, 1J, 1L, 1N, 1P, 1R, 1T, 1V, 1X, 1ZZ, 1BB, 1DD, and 1FF.
The time curves shown in FIGS. 1B and 1D were fitted and a rate constant, ksolvolysis, for each time curve was calculated. As a measure of the stability of the fluoridated organoborate to solvolytic defluoridation, pkB—F values were calculated using the equation pkB—F=−log(ksolvolysis). In addition to pkB—F values, observed solvolytic defluoridation half-life, t1/2, values and rate constants, ksolvolysis, for a number of different fluoridated organoborates are listed in Table 1.

[2] = pKa of the carboxylic acid carrying the same moiety as the RBF3 compound; cited from earlier work
[3] = Stability of Rhodamine-BF3 conjugates in plasma by TLC; format: in vitro ADME, mice; conditions: tested as Rhodamine B conjugate, 37° C., 2 hours, fluorescence analysis
Description: The symbols A, B, C represent Rhodamine-ArBF3, Rhodamine-PyrBF3, and […] of Table 1, respectively. The subscript numbers 1, 2, 3 represent different test conditions: Plasma 1, Plasma 2 and PBS buffer (Plasma 1 and Plasma 2 were acquired from different mice).
The following is a representative example of testing of solvolytic defluoridation of a fluoridated organotrifluoroborate as shown in FIG. 3. 2 nmol Rhodamine-BF3 was added into 100 μL plasma, and then incubated at 37° C. After 2 hours, 200 μL acetonitrile (ACN) was added to precipitate the protein from the solution. The crude was filtered with 40 μm filter paper, and then a reddish purple solution was achieved. 1 μL of this solution was loaded on the TLC plate. The TLC plate was developed by 15% methanol/DCM. The TLC chromatograms for an aryltrifluoroborate (Rhodamine-ArBF3), Rhodamine-PyrBF3, and a quaternary ammoniomethyltrifluoroborate (Rhodamine-Compound 10 of Table 1) are shown as FIG. 3.
In the TLC chromatograms, Rhodamine B was conjugated with the trifluoroborate to trace the decomposition. The hydrolyzed product lost the negative charge, and therefore migrated much more rapidly than the precursor.

[4] = Stability of 18F-radiolabeled organotrifluoroborate in plasma by HPLC; format: in vitro ADME; conditions: 18F-labelled, 37° C., 150 mins, in vitro test n=3
Description: 1.1 mCi of ^18F-Compound 10 (^18F-ammoniomethyltrifluoroborate) was mixed with 100 μL of plasma to form a ^18F-Compound 10-plasma mixture, and then incubated at 37° C. for two hours. 200 uL of acetonitrile (ACN) was then added to the ^18F-Compound 10-plasma mixture to precipitate the protein from the mixture. The precipated protein portion was separated from the mixture by filtration with 40 μm filter paper, and the clear filtrate was injected into an HPLC for stability analysis. Chromatograms for independent HPLC tests of Rhodamine-Compound 10 of Table 1 at 0 minutes (A), 80 minutes (B), 150 minutes (C), 0 minutes (D), 150 minutes (E), and 150 minutes (F) are shown in FIG. 4A through FIG. 4F.

SMILES: CCCC[B-](F)(F)F [Compound 1, butyltrifluoroborate]
- pk (solvolysis) = −log k(solvolysis) [1]: 0.52
- k(solvolysis) [1]: 0.3 min − 1
- half-life [1]: 0.0383 to 0.05 h
- pKa of Corresponding COOH [2]: 4.81

SMILES: C=C[B-](F)(F)F [Compound 2, vinyltrifluoroborate]
- pk (solvolysis) = −log k(solvolysis) [1]: 1.01
- k(solvolysis) [1]: 0.099 min − 1
- half-life [1]: 0.117 h
- pKa of Corresponding COOH [2]: 4.25

SMILES: F[B-](F)(F)COCc1ccccc1 [Compound 3]
- pk (solvolysis) = −log k(solvolysis) [1]: 2.32
- k(solvolysis) [1]: 0.00476 min − 1
- half-life [1]: 2.42 h
- pKa of Corresponding COOH [2]: 3.53

SMILES: F[B-](F)(F)CBr [Compound 4, bromomethyltrifluoroborate]
- pk (solvolysis) = −log k(solvolysis) [1]: 2.98
- k(solvolysis) [1]: 0.000768 min − 1
- half-life [1]: 11 h
- pKa of Corresponding COOH [2]: 2.86

SMILES: O=C(CCCCO)[B-](F)(F)F [Compound 5]
- pk (solvolysis) = −log k(solvolysis) [1]: 3.5249
- k(solvolysis) [1]: 0.000298 min − 1
- half-life [1]: 38.5 h
- pKa of Corresponding COOH [2]: 2.5

SMILES: CC[NH+](CC)C[B-](F)(F)F [Compound 6]
- pk (solvolysis) = −log k(solvolysis) [1]: 3.7554
- k(solvolysis) [1]: 0.000175 min − 1
- half-life [1]: 65.5 h
- pKa of Corresponding COOH [2]: 2.34

SMILES: O=C(c1ccccc1)[B-](F)(F)F [Compound 8, benzoytrifluoroborate]
- pk (solvolysis) = −log k(solvolysis) [1]: 4.0700
- pKa of Corresponding COOH [2]: 2.35

SMILES: C#CC[N+](C)(C)C[B-](F)(F)F [Compound 10]
- pk (solvolysis) = −log k(solvolysis) [1]: 4.5036
- k(solvolysis) [1]: 3.14 × 10^−5 min − 1
- half-life [1]: 367 h
- decomposition (hydrolyzed product) on TLC after incubation in plasma [3]: almost no hydrolyzed product was detected
- decomposition in plasma by HPLC [4]: almost no decomposition was observed
- pKa of Corresponding COOH [2]: 1.83

SMILES: F[B-](F)(F)C(Cl)Cl [Compound 11]
- pk (solvolysis) = −log k(solvolysis) [1]: 5.3372
- k(solvolysis) [1]: 4.6 × 10^−5 min − 1
- half-life [1]: 2500 h
- pKa of Corresponding COOH [2]: 1.29

SMILES: C[S+](C[B-](F)(F)F)c1ccccc1 (stereo not shown) [Compound 12]
- pk (solvolysis) = −log k(solvolysis) [1]: 5.82
- k(solvolysis) [1]: 1.5 × 10^−5 min − 1
- half-life [1]: 7670 h

SMILES: F[B-](F)(F)C[n+]1ccccc1 [Compound 14]
- pk (solvolysis) = −log k(solvolysis) [1]: 4.19
- k(solvolysis) [1]: 6.45 × 10^−5 min − 1
- half-life [1]: 178 h
- pKa of Corresponding COOH [2]: 2.14

SMILES: C[n+]1ccn(C[B-](F)(F)F)c1 [Compound 15]
- pk (solvolysis) = −log k(solvolysis) [1]: 2.59
- k(solvolysis) [1]: 0.00259 min − 1
- half-life [1]: 4.43 h

SMILES: COC(=O)C[N+](C)(C)C[B-](F)(F)F [Compound 16]
- pk (solvolysis) = −log k(solvolysis) [1]: 4.17
- k(solvolysis) [1]: 0.0000673 min − 1
- half-life [1]: 172 h

SMILES: C[N+](C)(CC(=O)O)C[B-](F)(F)F [Compound 17]
- pk (solvolysis) = −log k(solvolysis) [1]: 2.70
- k(solvolysis) [1]: 0.0020 min − 1
- half-life [1]: 5.77 h

SMILES: C#CC[N+](C)(C[B-](F)(F)F)C[B-](F)(F)F [Compound 18]
- pk (solvolysis) = −log k(solvolysis) [1]: 3.61
- k(solvolysis) [1]: 0.000246 min − 1
- half-life [1]: 47 h
